# Biological target: PDE4B (Homo sapiens, UniProt Q07343)
# Experiment: Scintillation Proximity (SPA) Assay of PDE4B enzyme inhibition
# Type: biochemical
# Conditions: read-out: % Inhibition PDE4B @ 1 μM
# Procedure: The inhibitions (in %) at 1 μM of the individual Example substances are included in the following Tables of Examples and were determined as follows:
# The Scintillation Proximity (SPA) Assays (GE Healthcare, No. TRKQ7090) make use of the different affinities of cyclic 3′-5′-adenosine monophosphate (cAMP, low affinity) and linear 5′-adenosine monophosphate (AMP, high affinity) for yttrium silicate scintillator beads. The cAMP specific phosphodiesterase (PDE) PDE4B cleaves the 3′-phosphoester bond of the tritium-labelled [H3]-cAMP to form the [H3]-5′-AMP. Because of its higher affinity for the scintillator beads this [H3]-AMP accumulates on the beads and causes scintillation events (flashes of light) which are measured in a Wallac Microbeta Scintillation Counter.
# The test starts with one hours incubation of [H3]-cAMP with the PDE4B enzyme in assay buffer at 30° C., once with the Example substance that is to be tested (in a concentration of 1 μM) and once without the Example substance that is to be tested. After this incubation the reaction is stopped by the addition of the beads. The beads are given an opportunity to settle over the next 45 minutes, then they are measured in the Scintillation Counter. If the substance is capable of inhibiting the enzymatic activity of the PDE4B, less [H3]-AMP is formed during the incubation phase and fewer scintillation events can be measured.
# Sequence of PDE4B (Q07343 whole entry, species assumed): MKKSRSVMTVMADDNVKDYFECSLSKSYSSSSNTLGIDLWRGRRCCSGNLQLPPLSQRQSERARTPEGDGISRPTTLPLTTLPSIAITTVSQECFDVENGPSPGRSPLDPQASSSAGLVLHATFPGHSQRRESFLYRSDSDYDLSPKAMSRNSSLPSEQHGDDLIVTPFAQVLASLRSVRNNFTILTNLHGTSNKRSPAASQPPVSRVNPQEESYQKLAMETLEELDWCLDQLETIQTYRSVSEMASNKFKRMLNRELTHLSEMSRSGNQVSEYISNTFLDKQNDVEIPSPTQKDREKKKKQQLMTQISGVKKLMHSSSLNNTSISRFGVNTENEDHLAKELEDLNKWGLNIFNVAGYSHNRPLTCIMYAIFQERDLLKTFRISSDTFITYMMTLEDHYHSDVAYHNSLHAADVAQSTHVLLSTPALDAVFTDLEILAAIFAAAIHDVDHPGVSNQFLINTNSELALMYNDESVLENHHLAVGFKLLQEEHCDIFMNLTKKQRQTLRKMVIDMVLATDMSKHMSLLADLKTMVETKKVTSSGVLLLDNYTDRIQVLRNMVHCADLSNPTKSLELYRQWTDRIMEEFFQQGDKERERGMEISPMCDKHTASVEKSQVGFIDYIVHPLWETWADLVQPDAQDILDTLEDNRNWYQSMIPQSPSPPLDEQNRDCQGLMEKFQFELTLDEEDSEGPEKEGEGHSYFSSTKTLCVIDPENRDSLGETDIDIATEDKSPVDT
row,Compound,inhibition at 1 µM
1,"CN1C[C@@H](Nc2nc(N3CCN(c4cccc(F)c4)CC3)nc3c2[S+]([O-])CC3)CCC1=O (stereo partly drawn) [Example 37, (S)-5-{2-[4-(3-FLUOROPHENYL)-PIPERAZIN-1-YL]-5-OXO-6,7-DIHYDRO-5H-5λ^4-THIENO[3,2-D]PYRIMIDIN-4-YLAMINO}-1-METHYLPIPERIDIN-2-ONE]",97%

# Same assay, conditions: test substance 1 μM; one hour incubation of [H3]-cAMP with PDE4B enzyme at 30° C.; read-out: % Inhibition PDE4B @ 1 μM
row,Compound,inhibition at 1 µM
1,"CC(C)[C@H](CO)Nc1nc(N2CCN(c3ccccc3C#N)CC2)nc2c1[S+]([O-])CC2 (stereo partly drawn) [Example 2, 2-{4-[4-((R)-1-hydroxymethyl-2-methylpropylamino)-5-oxo-6,7-dihydro-5H-5λ^4-thieno[3,2-d]pyrimidin-2-yl]piperazin-1-yl}-benzonitrile]",92%
2,"CC(C)[C@H](CO)Nc1nc(N2CCN(c3ccccc3Cl)CC2)nc2c1[S+]([O-])CC2 (stereo partly drawn) [Example 4, (R)-2-{2-[4-(2-CHLOROPHENYL)-PIPERAZIN-1-YL]-5-OXO-6,7-DIHYDRO-5H-5λ^4-THIENO[3,2-D]PYRIMIDIN-4-YLAMINO}-3-METHYLBUTAN-1-OL]",88%
3,"[O-][S+]1CCc2nc(N3CCN(c4ccccc4Cl)CC3)nc(NC3(CO)CC3)c21 (stereo not drawn) [Example 7, (1-{2-[4-(2-chlorophenyl)-piperazin-1-yl]-5-oxo-6,7-dihydro-5H-5λ^4-thieno[3,2-d]pyrimidin-4-ylamino}-cyclopropyl)-methanol]",94%
4,"CN1C[C@@H](Nc2nc(N3CCN(c4ccccc4Cl)CC3)nc3c2[S+]([O-])CC3)CCC1=O (stereo partly drawn) [Example 14, (S)-5-{2-[4-(2-chlorophenyl)-piperazin-1-yl]-5-oxo-6,7-dihydro-5H-5λ^4-thieno[3,2-d]pyrimidin-4-ylamino}-1-methylpiperidin-2-one]",96%
5,"[O-][S+]1CCc2nc(N3CCN(c4ccccc4Cl)CC3)nc(NC3CCOCC3)c21 (stereo not drawn) [Example 19, {2-[4-(2-chlorophenyl)-piperazin-1-yl]-5-oxo-6,7-dihydro-5H-5λ^4-thieno[3,2-d]pyrimidin-4-yl}-(tetrahydropyran-4-yl)-amine]",95%
6,"COc1ccccc1N1CCN(c2nc3c(c(Nc4cccc(F)c4)n2)[S+]([O-])CC3)CC1 (stereo not drawn) [Example 21, (3-FLUOROPHENYL)-{2-[4-(2-METHOXYPHENYL)-PIPERAZIN-1-YL]-5-OXO-6,7-DIHYDRO-5H-5λ^4-THIENO[3,2-D]PYRIMIDIN-4-YL}-AMINE]",96%
7,"N#Cc1ccccc1N1CCN(c2nc3c(c(Nc4cccc(F)c4)n2)[S+]([O-])CC3)CC1 (stereo not drawn) [Example 22, 2-{4-[4-(3-FLUOROPHENYLAMINO)-5-OXO-6,7-DIHYDRO-5H-5λ^4-THIENO[3,2-D]PYRIMIDIN-2-YL]-PIPERAZIN-1-YL}-BENZONITRILE]",97%
8,"[O-][S+]1CCc2nc(N3CCN(c4ccccc4Cl)CC3)nc(Nc3cccc(F)c3)c21 (stereo not drawn) [Example 24, {2-[4-(2-CHLOROPHENYL)-PIPERAZIN-1-YL]-5-OXO-6,7-DIHYDRO-5H-5λ^4-THIENO[3,2-D]PYRIMIDIN-4-YL}-(3-FLUOROPHENYL)-AMINE]",95%
9,"CC(C)C(CO)Nc1nc(N2CCN(c3cccc(F)c3)CC2)nc2c1[S+]([O-])CC2 [Example 27, (R)-2-{2-[4-(3-FLUOROPHENYL)-PIPERAZIN-1-YL]-5-OXO-6,7-DIHYDRO-5H-5λ^4-THIENO[3,2-D]PYRIMIDIN-4-YLAMINO}-3-METHYLBUTAN-1-OL]",96%
10,"Cc1cccc(N2CCN(c3nc4c(c(NC(CO)C(C)C)n3)[S+]([O-])CC4)CC2)c1 [Example 30, (R)-3-METHYL-2-[5-OXO-2-(4-m-TOLYLPIPERAZIN-1-YL)-6,7-DIHYDRO-5H-5λ^4-THIENO[3,2-D]PYRIMIDIN-4-YLAMINO]-BUTAN-1-OL]",94%
11,"[O-][S+]1CCc2nc(N3CCN(c4cccc(F)c4)CC3)nc(NC3(CO)CC3)c21 (stereo not drawn) [Example 32, (1-{2-[4-(3-FLUOROPHENYL)-PIPERAZIN-1-YL]-5-OXO-6,7-DIHYDRO-5H-5λ^4-THIENO[3,2-D]PYRIMIDIN-4-YLAMINO}-CYCLOPROPYL)-METHANOL]",97%

# From patent US20110028441A1, “NOVEL PHENYL-SUBSTITUTED PIPERAZINO-DIHYDROTHIENOPYRIMIDINES” (BOEHRINGER INGELHEIM INTERNATIONAL GMBH, priority 2007, published 2011)
